{"source": "patent US20100215588A1", "about": "“THERAPEUTIC DELIVERY OF INHIBITORY NUCLEIC ACID MOLECULES TO THE RESPIRATORY SYSTEM” (priority 2007, published 2010)", "key": {"[1]": {"assay": "Clinical observations after inhalation doses of siRNA", "format": "in vivo, cynomolgus monkeys", "procedure": "Male cynomolgus monkeys were administered single oronasal inhalation doses of a nebulised aerosol formulation of fluorescent-labelled REDD14Cy3.5 and/or I5NP siRNAs. Following dosing, the concentration of I5NP in plasma, the non-compartmental disposition kinetics of I5NP in plasma, the qualitative distribution of REDD14Cy3.5 in lungs and the semi-quantitative distribution of I5NP in lungs were determined.\nAnimals were treated with test aerosols using a pediatric anesthetic-type oronasal face mask fitted with inlet and outlet tubes and a breathing loop. During treatment, animals were placed in a restraint sling. The test atmospheres were generated using an Aeroneb (Aerogen) nebulizer, and assessed for output as described below. The level of exposure to the test article was achieved by varying the duration of exposure.\nOn Day 1 of the study, four of the available monkeys (101 to 104) were administered a target dose of 35 mg/kg of I5NP siRNA via an oronasal mask as a nebulized aerosol generated by the Aeroneb device. A 2.0 L/min dilution airflow was used. The total dose administered was calculated, based on the bodyweights and measured respiratory minute volumes of the animals, and on the achieved output of the Aeroneb device using the formulation concentration of 40 mg/mL. The administered dose was adjusted by changing the exposure times for the animals. […]"}, "[2]": {"assay": "Semi-quantitative distribution of I5NP siRNA in lung (hybridization assay)", "format": "in vivo, cynomolgus monkeys", "procedure": "On Day 15 of the study, two of the available animals (101 and 102) were administered a target dose of 35 mg/kg of a mixture of I5NP and REDD14Cy3.5 (fluorescence-labelled) siRNA via an oronasal mask as a nebulized aerosol generated by the Aeroneb device. A 2.0 L/min dilution airflow was used. The total dose of siRNA administered was calculated, based on the bodyweights and measured respiratory minute volumes of the animals, and on the achieved output of the Aeroneb device using the formulation concentration of 40 mg/mL of siRNA. The administered dose was adjusted by changing the exposure times for the animals\nOn Day 35 of the Study, the three remaining main study animals (103 to 105) were administered a target dose of 35 mg/kg of I5NP siRNA via an oronasal mask as a nebulized aerosol generated by the Aeroneb device. A 2.0 L/min dilution airflow was used. The total dose administered was calculated, based on the bodyweights and measured respiratory minute volumes of the animals, and on the achieved output of the Aeroneb device using the formulation concentration of 40 mg/mL. The administered dose was adjusted by changing the exposure times for the animals.\nAt the time of necropsy following Treatment 2, the lungs of animal 101 were removed from the animal. The lungs were separated into individual lobes. The bronchi/bronchioles and immediately surrounding regions of each lobe were dissected out as carefully as was practicable and pooled, per lobe. The remaining tissue areas were pooled, per lobe. Each pooled sample (i.e. bronchi/bronchioles and remaining tissue for each lobe) was stored deep-frozen (−80° C.) for analysis via hybridization assay. Lung samples from animal 101 were tracked using the Watson LIMS system.\nAt each specified time of necropsy following Treatment 3, the lungs of animals 103, 104 or 105 were removed from the animals. Each set of lungs were separated into individual lobes. The bronchi/bronchioles and immediately surrounding regions of each lobe were dissected out as carefully as was practicable and pooled, per lobe. The remaining tissue areas were pooled, per lobe. […]\nAll lung samples from animal 101 (i.e. left cranial lobe, bronchioles and remainder; left caudal lobe, bronchioles and remainder; right cranial lobe, bronchioles and remainder; right middle lobe, bronchioles and remainder; right caudal lobe, bronchioles and remainder and right accessory lobe, bronchioles and remainder) were analyzed for I5NP siRNA concentration. For animals 103, 104 and 105, left cranial lobe (bronchioles and remainder) and right caudal lobe (bronchioles and remainder) were analyzed for I5NP siRNA concentration. […] The results obtained for lung samples were considered as semi-quantitative."}}, "note": "Entries after “also recorded” stand apart in the source; their conditions may differ."}
{"substance": "I5NP: exemplary p53 inhibiting siRNA; sense GAGAAUAUUUCACCCUUCA, antisense UGAAGGGUGAAAUAUUCUC (chemistry not given here)", "values": [{"measurement": "macroscopic findings in organs and tissues", "setting": "[1]; necropsy after inhalation doses", "value": "of no toxicological significance"}, {"measurement": "treatment-related clinical signs", "setting": "[1]; single oronasal inhalation doses, target 35 mg/kg", "value": "No treatment-related clinical signs were observed"}, {"measurement": "I5NP concentration in bronchioles and peripheral lung tissues", "setting": "[2]; Treatment 2 (I5NP:REDD14Cy3.5 9:1), animal 101, approximately 30 minutes post-end of dosing, all 6 lobes, semi-quantitative", "value": "found in high concentrations in both bronchioles and in peripheral tissues of all lobes of each lung"}, {"measurement": "I5NP concentration, peripheral tissues versus bronchiolar samples", "setting": "[2]; Treatment 2, animal 101, approximately 30 minutes post-end of dosing", "value": "generally higher in the peripheral tissues than in the bronchiolar samples"}, {"measurement": "relative concentrations in bronchiolar and peripheral lung tissues over time", "setting": "[2]; Treatment 3, animals 103, 104, 105, 6, 24 and 72 h post-end of dosing, left cranial and right caudal lobes", "value": "still detectible at 72 hours post-end of dosing"}, {"measurement": "levels in lungs compared with plasma", "setting": "[2]; all time points post-dose", "value": "at all times greater than those in plasma; also recorded: higher than in plasma"}]}
